Laboratory results reported in patent US20260094269A1, “DIAGNOSIS AND MONITORING OF NEURODEGENERATIVE DISEASES” (MACQUARIE UNIVERSITY, priority 2019, published 2026).

System: monocytes
Assay: Hyperspectral autofluorescence imaging of monocytes isolated from treated ALS / motor neuron disease patients (LDA projection, response score)
Format: in vivo, human
Text: In the particular implementation presented here the “response vectors” were obtained using the following procedure. First, a discriminatory model was developed using a subset of the data based on two groups, the first group comprising the controls C1 C4 and two sets of patient data P2 and P6, while the second group comprising P1, P3, and P4. Second, all data from FIG. 4 was projected on the direction joining the centres of the two cell data clusters for the two groups defined above and a one-dimensional response vector was determined by a projection of each original cell vector from FIG. 4. These one-dimensional response vectors for all cells were presented in a box plot format (each symbol indicates a response vector for a different cell).
The box plots in FIGS. 5 and 6 comprise rectangles with three shades of grey. The thin line in the centre of the rectangle has the darkest shade of grey and represents the median value; the two stripes immediately adjacent to the centre line have the lightest shade of grey and represent the 95% confidence region (1.96×SEM); and the two stripes nearest to the ends of the rectangle have an intermediate shade of grey and represent the first standard deviation. If the light-grey regions of a cluster are not horizontally overlapping, one can be confident of having measured a difference. The values in the plot were shifted by a value of 1.3358, just for sake of placing the controls about zero, although this is an arbitrary shift and, in other examples, the values may be shifted by other amounts. Clusters may be classified according to their mean values: high values may be attributed to “diseased and unresponsive” state, intermediate values may be attributed to “normal”, and low values compared to normal may be interpreted as “drug affected”.
Blood samples were collected using Vacutainer® CPT™ Cell Preparation Tube (BD Australia, catalogue: 362760). 4 mls of whole blood from controls and MND patients were collected into the CPT tube via veinpuncture technique, using the standard technique for BD Vacutainer® Evacuated blood collection tubes. After collection, the tube/blood samples were centrifuged at room temperature (18-25° C.) in a horizontal rotor centrifuge for a minimum of 20 minutes at 1500 to 1800 RCF. After centrifugation, mononuclear cells and platelets located in a whitish layer (Buffy layer just under the plasma layer) were collected using a Pasteur pipette and transferred to a 15 mL size conical centrifuge tube.
Monocytes were isolated from collected buffy layer using a Pan Monocyte Isolation Kit, human (Miltenyi Biotec, catalogue: 130-096-537). The Monocyte Isolation Kit is an indirect magnetic labelling system for the isolation of untouched monocytes from human peripheral blood mononuclear cells (PBMCs). Non-monocytes, i.e. T cells, NK cells, B cells, dendritic cells and basophils, are indirectly magnetically labeled using a cocktail of biotin-conjugated antibodies against CD3, CD7, […], CD19, CD56, CD123 and Glycophorin A, and Anti-Biotin MicroBeads. Isolation of highly pure unlabelled monocytes is achieved by depletion of the magnetically labeled cells. […]

CN=C([S-])N/N=C(C)/C(C)=N/NC([S-])=NC.[Cu+2] [CuATSM, Copper ATSM]
clustering of monocytes (autofluorescence spectral space) relative to healthy control (ALS Patient 1, before (T0) vs three weeks after (T1) start of treatment, FIG. 5(a)): normalised towards the healthy cells
response score (one-dimensional projection), longitudinal testing (ALS Patients 1 and 2, T0 vs T1-T3 over the course of treatment, FIG. 5(c)): statistically strong drug responses from time T1 onwards
position of treated patients' cell data in LDA projection (control space vs patient space) (FIG. 4, all patients and controls C1-C4): appear in the control space or to the left hand side
position of patient cell data in LDA projection over consecutive tests (FIG. 4, patient (P5), Test1 to Test4): progressively moving left (and less component 2) into the control/treated space

Nc1nc2ccc(OC(F)(F)F)cc2s1 [Riluzole]
range of response scores compared with healthy controls (eight other ALS patients (Patients 3-10), FIG. 6): much wider range of response scores than healthy controls
